This passage reports IC50 results from patent publication US8304447B2, “2-acylaminopropoanol-type glucosylceramide synthase inhibitors” (Genzyme Corporation, priority 2007, dated 2012).

Each structure is given as a SMILES string. Where two headings read alike, the source gives them in different places. Bounds are passed on as bounds.

The subject of the assay is GM3. Briefly: GM3 Elisa assay. In kind it is cell-based. As to conditions: B16-FO cells, read-out: IC50_uM_Mean. A digest of the protocol: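 Murine B16-FO melanoma cells attached 6 h on collagen, then exposed to compounds for 2 days at 37 °C. After formaldehyde fixation, cell-surface GM3 (NeuAc) was detected by anti-GM3 IgM and peroxidase anti-mouse IgM with Quantablu fluorescence (Ex 325/Em 420).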

Setting [1] is: 48 h, Table 1, 2 days incubation.
Setting [2] is: 48 h, Table 2, 2 days incubation.

`O=C(CCCCOC1CCOCC1)N[C@H](CN1CCCC1)[C@H](O)c1ccc2c(c1)OCCO2` [Compound 554]: the IC50 (Table 3 (IC 50 Values)) was in the range of 3000 to 10000 nM.
Still for that read-out and setting: to `O=C(CCCCc1nc(C2CC2)no1)N[C@H](CN1CCCC1)[C@H](O)c1ccc2c(c1)OCCO2` [Compound 650] belongs 100 to 1000 nM; to `COCCOc1ccc(C(=O)CCCCC(=O)N[C@H](CN2CCCC2)[C@H](O)c2ccc3c(c2)OCCO3)cc1` [Compound 450], ≤ 100 nM; to `O=C(Cc1ccc(OC(F)(F)F)cc1)N[C@H](CN1CCCC1)[C@H](O)c1ccc(Cl)cc1` [Compound 381], 1000 to 3000 nM.
For `O=C(Cc1cccc(Oc2ccccc2)c1)N[C@H](CN1CCCC1)[C@H](O)c1ccc2c(c1)OCCO2` [Compound 86, N-((1R,2R)-1-(2,3-dihydrobenzo[b][1,4]dioxin-6-yl)-1-hydroxy-3-(pyrrolidin-1-yl)propan-2-yl)-2-(3-phenoxyphenyl)acetamide], under setting [1], the IC50 was ≤ 100 nM.
Regarding `CCCNC[C@@H](NC(=O)CCCCCC(=O)c1ccc(OC)cc1)C(O)c1ccc2c(c1)OCCO2` (stereo partly drawn) [Compound 467], the IC50 (Table 3 (IC 50 Values)) was in the range of 100 to 1000 nM.
The same measure, in the same setting: then `Cc1nccn1C[C@@H](NC(=O)CCCCCC(=O)c1ccc(F)cc1)C(O)c1ccc2c(c1)OCCO2` (stereo partly drawn) [Compound 569], with 3000 to 10000 nM; and `COc1ccc(C(=O)CCCCCC(=O)N[C@H](CN2C[C@@H]3CC[C@H]2C3)[C@H](O)c2ccc3c(c2)OCCO3)cc1` [Compound 547], with ≤ 100 nM; and `O=C(CCCC(=O)c1ccc(F)cc1)N[C@H](CN1C2CCC1CC2)[C@H](O)c1ccc2c(c1)OCCO2` [Compound 474], with 100 to 1000 nM.
`O=C(Cc1ccc(Oc2ccccc2)cc1)N[C@H](CN1CCCC1)[C@H](O)c1ccc2c(c1)OCCO2` [Compound 24, N-((1R,2R)-1-(2,3-dihydrobenzo[β][1,4]dioxin-6-yl)-1-hydroxy-3-(pyrrolidin-1-yl)propan-2-yl)-2-(4-phenoxyphenyl)acetamide]: under setting [1], the IC50 lay in the range of 100 to 1000 nM.
On to `CCCCCCCC(=O)N[C@H](CN1CCC(F)C1)[C@H](O)c1ccc2c(c1)OCCO2` (stereo partly drawn) [Compound 322], for which the IC50 under setting [2] was in the range of 100 to 1000 nM.
As for `COc1ccc(OCCC(=O)N[C@H](CN2CCCC2)[C@H](O)c2ccc(C)c(F)c2)cc1` [Compound 349], the IC50 (Table 3 (IC 50 Values)) is 100 to 1000 nM.
Same read-out and setting: then `O=C(CCCCCC(=O)c1ccc(F)cc1)N[C@H](CN1C2CCC1CC2)[C@H](O)c1ccc2c(c1)OCCO2` [Compound 475], with ≤ 100 nM.
Regarding `O=C(CCOc1ccc(F)cc1)N[C@H](CN1CCCC1)[C@H](O)c1ccc2c(c1)OCCO2` [Compound 58, N-((1R,2R)-1-(2,3-dihydrobenzo[β][1,4]dioxin-6-yl)-1-hydroxy-3-(pyrrolidin-1-yl)propan-2-yl)-3-(4-fluorophenoxy)propanamide], the IC50 under setting [1] lay in the range of 100 to 1000 nM.
For the compound `O=C(CCCCC(=O)C1CCOCC1)N[C@H](CN1CC[C@@H](F)C1)[C@H](O)c1ccc(OCc2ccccc2)cc1` [Compound 576], the IC50 (Table 3 (IC 50 Values)) lay in the range of 100 to 1000 nM.
With `COc1ccc([C@@H](O)[C@@H](CN2CCCC2)NC(=O)CCCCC(=O)c2ccc(OC(C)C)cc2)cc1` [Compound 272], under setting [2], the IC50 was ≤ 100 nM.
`COc1ccc(C(=O)CCCCCC(=O)N[C@H](CN2CCC[C@@H]2C)[C@@H](O)c2ccc3c(c2)OCCO3)cc1` [Compound 525]: the IC50 (Table 3 (IC 50 Values)) is ≤ 100 nM.
Still for that read-out and setting: then `COc1ccc([C@@H](O)[C@@H](CN2CCCC2)NC(=O)Cc2ccc(OC(F)(F)F)cc2)cc1F` [Compound 342], with 100 to 1000 nM.
The same measure, in the same setting: then `CCCCCCCCCCCCCCCC(=O)N[C@H](CNC1CCCC1)[C@H](O)c1ccc2c(c1)OCCO2` [Compound 681], with 1000 to 3000 nM; and `O=C(NCc1ccc(Cl)cc1)N[C@H](CN1CC[C@@H](F)C1)[C@H](O)c1ccc(OCCCCF)cc1` [Compound 735], with ≤ 100 nM.
For the compound `O=C(N[C@H](CN1CCCC1)[C@H](O)c1ccc2c(c1)OCCO2)c1ccc2sccc2c1` [Compound 19, N-((1R,2R)-1-(2,3-dihydrobenzo[β][1,4]dioxin-6-yl)-1-hydroxy-3-(pyrrolidin-1-yl)propan-2-yl)benzo[b]thiophene-5-carboxamide], under setting [1], the IC50 is 100 to 1000 nM.
For the compound `CCCCc1ccc([C@@H](O)[C@@H](CN2CCCC2)NC(=O)CCOc2ccc(OC)cc2)cc1` [Compound 260], under setting [2], the IC50 is ≤ 100 nM.
In the case of `COc1ccc(C(=O)CCCC(=O)N[C@H](CN2CCCC2)[C@H](O)c2ccc(Cl)s2)cc1` [Compound 359], under “Table 3 (IC 50 Values)”, the IC50 fell in the range of 100 to 1000 nM.
Still for that read-out and setting: to `O=C(CCCOc1ccc(F)cc1)N[C@H](CN1CCCC1)[C@H](O)c1ccc2c(c1)OCCO2` [Compound 566] belongs ≤ 100 nM.
In the case of `O=C(Cc1cccc(C(F)(F)F)c1)N[C@H](CN1CCCC1)[C@H](O)c1ccc2c(c1)OCCO2` [Compound 51, N-((1R,2R)-1-(2,3-dihydrobenzo[β][1,4]dioxin-6-yl)-1-hydroxy-3-(pyrrolidin-1-yl)propan-2-yl)-2-(3-(trifluoromethyl)phenyl)acetamide], the IC50 under setting [1] was in the range of 100 to 1000 nM.
On the same count and under the same terms, to `O=C(COc1ccc(Cl)cc1)N[C@H](CN1CCCC1)[C@H](O)c1ccc2c(c1)OCCO2` [Compound 83, 2-(4-chlorophenoxy)-N-((1R,2R)-1-(2,3-dihydrobenzo[β][1,4]dioxin-6-yl)-1-hydroxy-3-(pyrrolidin-1-yl)propan-2-yl)acetamide] belongs ≤ 100 nM.
Consider `CCCCOc1ccc([C@@H](O)C(CN2CC[C@H](O)C2)NC(=O)CCCCCCCOC)cc1` (stereo partly drawn) [Compound 592], for which the IC50 (Table 3 (IC 50 Values)) is ≤ 100 nM.
For `O=C(N[C@H](CN1CCCC1)[C@H](O)c1ccc2c(c1)OCCO2)C(CCc1ccc(F)cc1)C(F)(F)F` (stereo partly drawn) [Compound 615], where the note is “Table 3 (IC 50 Values)”, the IC50 lay in the range of 100 to 1000 nM.
For the compound `CC(C)Oc1ccc(C(=O)CCCC(=O)N[C@H](CN2CCCC2)[C@H](O)c2ccc3c(c2)OCO3)cc1` [Compound 265, N-((1R,2R)-1-(benzo[ε][1,3]-dioxol-5-yl)-1-hydroxy-3-(pyrrolidin-1-yl)propan-2-yl)-5-(4-isopropoxyphenyl)-5-oxopentanamide (2S,3S)-2,3-dihydroxysuccinate], under setting [2], the IC50 was ≤ 100 nM.
As to `O=C(CCCCCCOCC(F)(F)F)N[C@H](CN1CCCC1)[C@H](O)c1ccc2c(c1)OCCO2` [Compound 634], the IC50 (Table 3 (IC 50 Values)) lay within 100 to 1000 nM.
Turning to `COc1ccc([C@@H](O)[C@@H](CN2CCCC2)NC(=O)Nc2ccc(OC(F)(F)F)cc2)cc1` [Compound 249], the IC50 under setting [2] fell in the range of 1000 to 3000 nM.
On the same count and under the same terms, then `O=C(N[C@H](CN1CCCC1)[C@H](OC(=O)c1ccc(-c2ccccn2)s1)c1ccc2c(c1)OCCO2)c1ccc(-c2ccccn2)s1` [Compound 242], with 3000 to 10000 nM.
`COCCc1ccc([C@@H](O)[C@@H](CN2CCCC2)NC(=O)CCOc2ccc(OC)cc2)cc1` [Compound 356]: the IC50 (Table 3 (IC 50 Values)) fell in the range of 1000 to 3000 nM.
Still for that read-out and setting: then `O=C(CCC(=O)N[C@H](CN1CCCC1)[C@H](O)c1ccc2c(c1)OCCO2)NC1CCCCC1` [Compound 689], with 3000 to 10000 nM.
Turning to `COc1ccc(CNC(=O)N(C)[C@H](CN2CCCC2)[C@H](O)c2ccc3c(c2)OCCO3)cc1` [Compound 256], the IC50 under setting [2] fell in the range of 100 to 1000 nM.
As to `O=C(N[C@H](CO)[C@H](O)c1ccc(C(F)(F)F)cc1)OCc1ccccc1` [Compound 483], under “Table 3 (IC 50 Values)”, the IC50 was 3000 to 10000 nM.
`COc1ccc(OCCC(=O)N[C@H](CN2CCC[C@H]2C(F)(F)F)[C@H](O)c2ccc3c(c2)OCCO3)cc1` [Compound 542]: the IC50 (Table 3 (IC 50 Values)) fell in the range of 3000 to 10000 nM.
As to `O=C(NCc1ccc(Br)cc1)N[C@H](CN1CCCC1)[C@H](O)c1ccc2c(c1)OCCO2` [Compound 40, 1-(4-bromobenzyl)-3-((1R,2R)-1-(2,3-dihydrobenzo[β][1,4]dioxin-6-yl)-1-hydroxy-3-(pyrrolidin-1-yl)propan-2-yl)urea], under setting [1], the IC50 is ≤ 100 nM.
For the compound `COc1ccc(C(=O)CCCC(=O)N[C@H](CN2CCCC2)[C@H](O)/C=C/c2ccccc2)cc1` [Compound 393], the IC50 (Table 3 (IC 50 Values)) lay in the range of 3000 to 10000 nM.
Same read-out and setting: then `COc1ccc(C(=O)CCCCCC(=O)N[C@H](CCN2CCCC2)[C@H](O)c2ccc3c(c2)OCCO3)cc1` [Compound 688], with 3000 to 10000 nM.
Still for that read-out and setting: to `O=C(CCCCCC(F)(F)C1CC1)N[C@H](CN1CCCC1)[C@H](O)c1ccc2c(c1)OCCO2` [Compound 630] belongs 100 to 1000 nM; to `CCC(C)NC[C@@H](NC(=O)CCCCCC(=O)c1ccc(OC)cc1)C(O)c1ccc2c(c1)OCCO2` (stereo partly drawn) [Compound 461], 100 to 1000 nM.
On to `O=C(Cc1ccc(-c2ccc(Cl)cc2)cc1)N[C@H](CN1CCCC1)[C@H](O)c1ccc2c(c1)OCCO2` [Compound 48, 2-(4′-chlorobiphenyl-4-yl)-N-((1R, 2R)-1-(2,3-dihydrobenzo[β][1,4]dioxin-6-yl)-1-hydroxy-3-(pyrrolidin-1-yl)propan-2-yl)acetamide], for which the IC50 under setting [1] was ≤ 100 nM.
Regarding `COc1ccc(C(=O)CCCCC(=O)N[C@H](CN2CCCC2)[C@H](O)c2ccc(OCCCCC(C)C)cc2)cc1` [Compound 436], for the setting “Table 3 (IC 50 Values)”, the IC50 is ≤ 100 nM.
On the same count and under the same terms, to `COc1ccc(C(=O)CCCCC(=O)N[C@H](CN2CCCC2)[C@H](O)c2ccccc2OC)cc1` [Compound 698] belongs 100 to 1000 nM; to `COc1ccc(C(=O)CCCCCC(=O)N[C@H](CN2CCCC(C)C2)[C@H](O)c2ccc3c(c2)OCCO3)cc1` (stereo partly drawn) [Compound 609], 100 to 1000 nM; to `COc1ccc(C(=O)CCCC(=O)N[C@H](CN2CCCC2)[C@H](O)c2ccc(OC)c(C)c2)cc1` [Compound 386], 100 to 1000 nM.
For `CC[C@H](C)COc1ccc([C@@H](O)[C@@H](CN2CCCC2)NC(=O)CCCCC(=O)c2ccc(OC)cc2)cc1` [Compound 441], the IC50 (Table 3 (IC 50 Values)) is ≤ 100 nM.
Take `CCCCCCCC(=O)N[C@H](CN1CCCC1)[C@H](O)c1ccc(OC)cc1` [Compound 320, Octanoic acid [2-hydroxy-2(4-methoxy-phenyl)-1-Pyrrolidin1-ylmethyl-ethyl]-amide]: the IC50 under setting [2] is ≤ 100 nM.
With `COc1ccc(OCCC(=O)N[C@H](CN2CC[C@@H](O)C2)[C@H](O)c2ccc3c(c2)OCCO3)cc1` [Compound 513], where the note is “Table 3 (IC 50 Values)”, the IC50 lay within 3000 to 10000 nM.
For `CCCCOc1ccc([C@@H](O)[C@@H](CN2CC[C@@H](F)C2)NC(=O)CCCCCOCCF)cc1` [Compound 660], where the note is “Table 3 (IC 50 Values)”, the IC50 was in the range of 100 to 1000 nM.
